Measured values published in PubChem BioAssay (NCI).
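Test compounds were applied to cells in 96-well plates for 48 hours at 5 doses. GI50 marks 50% less growth. The concentration for full growth arrest is given as TGI.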

Legend:
Test in all cases: growth of human tumour cells (NCI), 48 h
A498 renal = tested on: A498 renal
A549 NSCLC = tested on: A549 NSCLC
ACHN renal = tested on: ACHN renal
MCF7 breast = tested on: MCF7 breast
NCI-H460 lung = tested on: NCI-H460 lung
OVCAR-5 ovarian = tested on: OVCAR-5 ovarian
OVCAR-8 ovarian = tested on: OVCAR-8 ovarian
SF-268 CNS = tested on: SF-268 CNS
SF-295 CNS = tested on: SF-295 CNS
SK-MEL-2 melanoma = tested on: SK-MEL-2 melanoma

Compound	GI50 (A498 renal)	TGI (A498 renal)	GI50 (A549 NSCLC)	TGI (A549 NSCLC)	GI50 (ACHN renal)	TGI (ACHN renal)	GI50 (MCF7 breast)	TGI (MCF7 breast)	GI50 (NCI-H460 lung)	TGI (NCI-H460 lung)	GI50 (OVCAR-5 ovarian)	TGI (OVCAR-5 ovarian)	GI50 (OVCAR-8 ovarian)	TGI (OVCAR-8 ovarian)	GI50 (SF-268 CNS)	TGI (SF-268 CNS)	GI50 (SF-295 CNS)	TGI (SF-295 CNS)	GI50 (SK-MEL-2 melanoma)	TGI (SK-MEL-2 melanoma)
COc1ccc(N(C)c2nc(Cl)nc3cnn(C)c23)cc1	< 0.01 µM	0.178 µM	< 0.0117 µM	> 100 µM	< 0.0145 µM	> 100 µM	< 0.01 µM	> 100 µM	< 0.01 µM	> 100 µM	0.0379 µM	> 100 µM	0.0192 µM	> 100 µM	< 0.0112 µM	> 100 µM	< 0.01 µM	> 100 µM	< 0.01 µM	> 100 µM
COc1ccc2c(c1)C(=O)c1c-2c(Nc2cccc(C(C)=O)c2)nc2ccccc12	3.09 µM	15 µM	17.7 µM	40.5 µM	4.21 µM	14.9 µM	24 µM	> 100 µM	23.5 µM	> 100 µM	11.4 µM	24.5 µM	14.5 µM	34.7 µM	36.5 µM	> 100 µM	21.7 µM	56.2 µM	16.4 µM	53.5 µM
CCN(Cc1ccc(F)cc1)c1ccc(CO)c(OC)c1	0.331 µM	1.37 µM	40.1 µM	> 100 µM	17.1 µM	53.7 µM	25.3 µM	> 100 µM	23.2 µM	> 100 µM	2.64 µM	12.2 µM	19.2 µM	> 64.5 µM	22.1 µM	> 65.4 µM	23.5 µM	> 84.3 µM	11.9 µM	27.7 µM
N#CC1C(=O)NC(c2ccccc2[N+](=O)[O-])c2sc3c(F)cccc3c21 (stereo not given)	0.561 µM	2.06 µM	1.72 µM	36.1 µM	15.7 µM	> 100 µM	0.216 µM	37 µM	0.28 µM	4.58 µM	0.583 µM	4.45 µM	9.59 µM	80.9 µM	15.8 µM	56.9 µM	1.11 µM	30.3 µM	9.03 µM	49.8 µM
